Test [1] deals with T1, human D4 (D4.4 variant) (Homo sapiens, UniProt P21917).
T1 sequence (P21917 1-419): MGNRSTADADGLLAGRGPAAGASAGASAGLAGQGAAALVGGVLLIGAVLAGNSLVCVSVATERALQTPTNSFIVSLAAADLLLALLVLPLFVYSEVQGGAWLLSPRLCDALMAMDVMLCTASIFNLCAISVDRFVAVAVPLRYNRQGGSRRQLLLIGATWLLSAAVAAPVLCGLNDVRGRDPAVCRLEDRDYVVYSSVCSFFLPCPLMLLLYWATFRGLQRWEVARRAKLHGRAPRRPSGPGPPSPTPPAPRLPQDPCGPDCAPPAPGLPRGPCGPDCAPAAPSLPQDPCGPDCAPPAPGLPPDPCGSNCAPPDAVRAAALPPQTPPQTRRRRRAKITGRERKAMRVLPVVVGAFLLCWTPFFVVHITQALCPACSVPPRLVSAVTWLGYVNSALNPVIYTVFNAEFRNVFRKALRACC
Description: biochemical. It is filed as binding.

Test [2] has as its target human D2 (D2 long receptor) (Homo sapiens, UniProt P14416). Put plainly: biochemical. It is filed as binding.
The target of a further test is human D3 (Homo sapiens, UniProt P35462). Description: D3 radioligand binding assay.
Test [3] addresses T1, human D4 (D4.4 variant). Put plainly: cell-based.
The target in another test is T2, cloned human D4 (Homo sapiens, UniProt P21917).
T2 sequence (P21917 1-419): T1 sequence (P21917 1-419)
Put plainly: cell-based. Particulars: Tango EC50, D4 β-arrestin.

Test [4] deals with T3, human D4 (Homo sapiens, UniProt P21917).
T3 sequence (P21917 1-419): T1 sequence (P21917 1-419)
Description: Arrestin BRET. The class given is cell-based.

The target in test [5] is T3, human D4. Description: cell-based.
For the next test, the system named is D4 dopamine receptor. Description: Signaling bias, G protein versus β-arrestin, versus quinpirole. The class given is cell-based, human.

pEC50, pKi: −log10 of the molar value. Some results are limits rather than exact numbers.

Results on 20 molecules are retold here after article PMC6383769 (Nature, 2019).

Usually pKi stands for the Ki on a negative log10 scale, so that one unit is a factor of ten. A high value points to a low Ki. As a reminder, the pEC50 is −log10 of the EC50, conventionally taken in molar units.

Sequence of human D3 (P35462 whole entry): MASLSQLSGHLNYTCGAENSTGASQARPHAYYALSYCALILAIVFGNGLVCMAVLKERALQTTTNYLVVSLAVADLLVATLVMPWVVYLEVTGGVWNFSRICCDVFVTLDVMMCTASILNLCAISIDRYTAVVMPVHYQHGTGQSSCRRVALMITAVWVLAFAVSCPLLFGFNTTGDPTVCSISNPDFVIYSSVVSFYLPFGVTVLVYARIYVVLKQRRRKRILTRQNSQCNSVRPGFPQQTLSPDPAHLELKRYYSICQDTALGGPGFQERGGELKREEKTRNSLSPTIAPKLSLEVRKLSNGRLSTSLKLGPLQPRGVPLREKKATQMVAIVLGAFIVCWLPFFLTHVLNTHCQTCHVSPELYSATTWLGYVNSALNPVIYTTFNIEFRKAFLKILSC
Sequence of human D2 (D2 long receptor) (P14416 whole entry): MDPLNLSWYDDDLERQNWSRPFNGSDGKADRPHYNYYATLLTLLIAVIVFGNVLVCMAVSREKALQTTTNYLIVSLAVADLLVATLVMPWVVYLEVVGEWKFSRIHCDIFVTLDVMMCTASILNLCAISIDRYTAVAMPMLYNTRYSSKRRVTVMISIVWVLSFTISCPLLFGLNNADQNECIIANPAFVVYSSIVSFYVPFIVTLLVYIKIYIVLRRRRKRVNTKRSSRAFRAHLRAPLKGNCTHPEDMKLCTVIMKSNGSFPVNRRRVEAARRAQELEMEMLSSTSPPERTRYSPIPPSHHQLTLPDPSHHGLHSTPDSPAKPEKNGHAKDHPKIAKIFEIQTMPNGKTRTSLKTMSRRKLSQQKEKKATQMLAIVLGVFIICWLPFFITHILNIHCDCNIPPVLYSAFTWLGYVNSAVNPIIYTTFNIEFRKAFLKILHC

For `C[C@@H]1CCCN(C(C)(C)CNc2nc(C3CC3)ns2)C1` [ZINC92642352], the pKi on human D4 (D4.4 variant) [1] is 6.09; in test [2] it was less than 5.00; at human D3, less than 5.00.
In the case of `Cc1ccc(CNCCCn2cccn2)cc1Br` [ZINC127859549], the figures for the pKi (at human D4 (D4.4 variant) [1]; in test [2]; on human D3) were 6.59, less than 5.00 and 5.45, respectively. In addition, on human D4 (D4.4 variant) [3], the pEC50 is 4.98.
On to `O[C@]1(CNCc2cnn(-c3ccc(Br)cc3)c2)CCSC1` [ZINC176752603], for which the pKi at human D4 (D4.4 variant) [1] was 6.52; in test [2], less than 5.00; on human D3, less than 5.00.
For `Cc1cccc(CCNCc2ccn(-c3ccccc3)n2)c1` [ZINC237938360], the pKi at human D4 (D4.4 variant) [1] was 6.74; in test [2], 5.24; on human D3 it was 5.97.
On to `CC(C)N1C[C@H](C)[C@H](NC(=O)c2cccc3cc[nH]c23)C1` [ZINC247398558], for which the pKi on human D4 (D4.4 variant) [1] is 6.68; in test [2] it was less than 5.00; at human D3, less than 5.00.
As for `C[C@H]1CN(C2CC2)C[C@H]1NC(=O)c1cc2cc([N+](=O)[O-])ccc2s1` [ZINC268141382], the results for the pKi (on human D4 (D4.4 variant) [1]; in test [2]; on human D3) were 6.25, less than 5.00 and less than 5.00, respectively. In addition, the pEC50 on human D4 (D4.4 variant) [3] is 5.00.
In the case of `C=Cn1cc(CNC[C@@H](CO)Cc2ccccc2Br)cn1` [ZINC278933042], the pKi on human D4 (D4.4 variant) [1] is 6.57; in test [2], less than 5.00; at human D3, less than 5.00. Further, the pEC50 at human D4 (D4.4 variant) [3] was 7.39; at cloned human D4 it was 4.65.
In the case of `OC[C@H](Cc1ccc(F)cc1)NCc1ccn(-c2ccccc2)n1` [ZINC358506216], the results for the pKi (on human D4 (D4.4 variant) [1]; in test [2]; on human D3) were 6.60, 5.23 and 5.18, respectively.
For `C#CCOc1ccccc1CN1CC[C@@]2(C1)C(=O)Nc1ccccc12` [ZINC375299581], in that order: 6.74, less than 5.00 and less than 5.00.
For `CCCC[C@H](CN)NC(=O)Nc1cnn(-c2ccc(C)cc2C)c1` [ZINC415558697], the pKi at human D4 (D4.4 variant) [1] was 6.00; in test [2], 5.70; at human D3, 5.23.
With `C[C@H](N[C@H](CO)Cc1ccccc1)c1cc2c(s1)CCC2` [ZINC437075156], the pKi on human D4 (D4.4 variant) [1] was 6.72; in test [2] it was less than 5.00; at human D3 it was less than 5.00. The molecule further had a pEC50 on human D4 (D4.4 variant) [3] of 4.98.
As for `CCC(CC)[C@@H](O)CNCc1cnc(-c2ccccc2F)s1` [ZINC449156693], the values for the pKi (on human D4 (D4.4 variant) [1]; in test [2]; on human D3) were 6.12, less than 5.00 and less than 5.00, respectively.
`C[C@H]1CN(C2CC2)C[C@H]1NC(=O)c1cc2cc(Br)ccc2o1` [ZINC467716766]: the pKi was 6.15 at human D4 (D4.4 variant) [1], less than 5.00 in test [2] and less than 5.00 at human D3. Besides, the pEC50 on human D4 (D4.4 variant) [3] is 4.46.
Turning to `CCC[C@H](C)[C@H](CO)NCCc1nc(-c2ccc(Cl)cc2)no1` [ZINC567992445], the pKi was 6.07 on human D4 (D4.4 variant) [1], less than 5.00 in test [2] and less than 5.00 at human D3. The pEC50 at human D4 (D4.4 variant) [3] was 5.32.
For `C=C(C)COCCNC[C@H](O)Cc1ccc(C(F)(F)F)cc1` [ZINC569686370], the pKi is 6.26 on human D4 (D4.4 variant) [1], less than 5.00 in test [2] and less than 5.00 at human D3. This molecule also gave a pEC50 on human D4 (D4.4 variant) [3] of 5.11.
Take `CC1(C)CCN(CC(=O)NC[C@@H]2CCC[C@H]2C2CC2)C1` [ZINC572302473]: the pKi is 6.04 on human D4 (D4.4 variant) [1], less than 5.00 in test [2] and less than 5.00 on human D3.
Regarding `N#Cc1ccnc(SC[C@]2(O)CCN(Cc3ccccc3)C2)c1` [ZINC601953994], the pKi was 6.01 at human D4 (D4.4 variant) [1], less than 5.00 in test [2] and less than 5.00 at human D3.
Turning to `CC(C)N1C[C@H](C)[C@H](NC(=O)N2Cc3ccccc3[C@@H]2C)C1` [ZINC621433143], the pKi was 6.17 on human D4 (D4.4 variant) [1], less than 5.00 in test [2] and less than 5.00 at human D3. The negative-log EC50 (pEC50) was 5.90 at human D4 [4], 5.50 on human D4 [5], 6.46 on human D4 (D4.4 variant) [3] and 6.05 at cloned human D4. Moreover, in the test with D4 dopamine receptor, the β-arrestin bias is 7.
On to `O=C(CN1C[C@@H](O)C[C@@H]1C1CC1)Nc1ccc(Br)cc1` [ZINC640028109], for which the pKi on human D4 (D4.4 variant) [1] is 6.09; in test [2], less than 5.00; at human D3 it was less than 5.00.
For `C[C@H](CNC(=O)c1coc2ccc(Cl)cc12)N1CCCC1` [ZINC651262870], the pKi on human D4 (D4.4 variant) [1] was 6.36; in test [2], less than 5.00; on human D3, less than 5.00. This molecule also gave a pEC50 at human D4 (D4.4 variant) [3] of 4.51.
